Laboratory results taken from patent US20230365592A1 (Agios Pharmaceuticals, Inc., priority 2022, published 2023).

Molecular target: T1, human PAH with the R408W mutation (Homo sapiens, UniProt P00439, R408W)
T1 construct: expressed in transfected cells
T1 sequence (P00439 1-452 R408W): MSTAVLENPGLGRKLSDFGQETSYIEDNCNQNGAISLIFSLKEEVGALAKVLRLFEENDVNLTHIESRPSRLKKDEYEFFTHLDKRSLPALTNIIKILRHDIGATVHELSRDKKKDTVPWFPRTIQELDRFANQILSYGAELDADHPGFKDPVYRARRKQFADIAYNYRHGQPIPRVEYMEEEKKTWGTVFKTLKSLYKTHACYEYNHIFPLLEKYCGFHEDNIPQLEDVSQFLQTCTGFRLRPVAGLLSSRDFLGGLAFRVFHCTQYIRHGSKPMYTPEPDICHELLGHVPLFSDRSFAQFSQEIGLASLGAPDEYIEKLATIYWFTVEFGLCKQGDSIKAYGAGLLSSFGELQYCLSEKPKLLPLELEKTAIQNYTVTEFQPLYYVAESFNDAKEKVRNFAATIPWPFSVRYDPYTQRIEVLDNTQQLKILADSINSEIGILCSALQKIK
Experiment: Cell Based Phenylalanine Flux Assay;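 also: after compound treatment, cells received sepiapterin plus isotope-labelled Phenylalanine for 4 hours, then labelled Tyrosine in the medium was quantified, 10-point 2-fold dilution series run in duplicate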
Settings: A375 cells expressing human R408W PAH; 24 hrs compound incubation; 13C-Tyrosine by LC-MS; average where tested multiple times; read-out: AC50

`CC(C)(F)c1nnc(C(=O)N2CCc3[nH]cnc3[C@H]2c2cc3c(OC(F)(F)F)cccn3n2)o1` [Example 1726, (S)-(5-(2-fluoropropan-2-yl)-1,3,4-oxadiazol-2-yl)(4-(4-(trifluoromethoxy)pyrazolo[1,5-a]pyridin-2-yl)-6,7-dihydro-1H-imidazo[4,5-c]pyridin-5(4H)-yl)methanone] and `CC(C)(F)c1nnc(C(=O)N2CCc3[nH]cnc3[C@H]2c2cc3c(OC(F)F)cccn3n2)o1` [Example 1728, (S)-(4-(4-(difluoromethoxy)pyrazolo[1,5-a]pyridin-2-yl)-6,7-dihydro-1H-imidazo[4,5-c]pyridin-5(4H)-yl)(5-(2-fluoropropan-2-yl)-1,3,4-oxadiazol-2-yl)methanone] fall in the same range of AC50: 500 to 1000 nM for the first, 500 to 1000 nM for the second.

Compared with `CC(C)(F)c1nnc(C(=O)N2CCc3[nH]cnc3[C@@H]2c2cc3c(OC(F)F)cccn3n2)o1` [Example 1729, (R)-(4-(4-(difluoromethoxy)pyrazolo[1,5-a]pyridin-2-yl)-6,7-dihydro-1H-imidazo[4,5-c]pyridin-5(4H)-yl)(5-(2-fluoropropan-2-yl)-1,3,4-oxadiazol-2-yl)methanone], `Fc1cccn2nc([C@@H]3c4nc[nH]c4CCN3c3nnc(C(F)F)o3)cc12` [Example 1737, (S)-2-(difluoromethyl)-5-(4-(4-fluoropyrazolo[1,5-a]pyridin-2-yl)-6,7-dihydro-1H-imidazo[4,5-c]pyridin-5(4H)-yl)-1,3,4-oxadiazole] is lower in AC50: > 5000 nM for the first, 500 to 1000 nM for the second.

Compared with `O=C(c1cnn2ccccc12)N1CCc2[nH]cnc2[C@H]1c1cc2c(C(F)F)cccn2n1` [Example 1730, (S)-(4-(4-(difluoromethyl)pyrazolo[1,5-a]pyridin-2-yl)-6,7-dihydro-1H-imidazo[4,5-c]pyridin-5(4H)-yl)(pyrazolo[1,5-a]pyridin-3-yl)methanone], `O=C(c1cnn2ccccc12)N1CCc2[nH]cnc2[C@@H]1c1cc2c(C(F)F)cccn2n1` [Example 1731, (R)-(4-(4-(difluoromethyl)pyrazolo[1,5-a]pyridin-2-yl)-6,7-dihydro-1H-imidazo[4,5-c]pyridin-5(4H)-yl)(pyrazolo[1,5-a]pyridin-3-yl)methanone] is higher in AC50: < 500 nM for the first, > 5000 nM for the second.

`FC(F)c1nnc(N2CCc3[nH]cnc3[C@H]2c2cc3c(C(F)F)cccn3n2)o1` [Example 1733, (S)-2-(difluoromethyl)-5-(4-(4-(difluoromethyl)pyrazolo[1,5-a]pyridin-2-yl)-6,7-dihydro-1H-imidazo[4,5-c]pyridin-5(4H)-yl)-1,3,4-oxadiazole] and `FC(F)c1nnc(N2CCc3[nH]cnc3[C@H]2c2cc3c(Cl)cccn3n2)o1` [Example 1739, (S)-2-(4-(4-chloropyrazolo[1,5-a]pyridin-2-yl)-6,7-dihydro-1H-imidazo[4,5-c]pyridin-5(4H)-yl)-5-(difluoromethyl)-1,3,4-oxadiazole] cannot be ordered by AC50: < 500 nM for the first, < 500 nM for the second.

Going from `FC(F)c1nnc(N2CCc3[nH]cnc3[C@H]2c2cc3c(C(F)(F)F)cccn3n2)o1` [Example 1735, (S)-2-(difluoromethyl)-5-(4-(4-(trifluoromethyl)pyrazolo[1,5-a]pyridin-2-yl)-6,7-dihydro-1H-imidazo[4,5-c]pyridin-5(4H)-yl)-1,3,4-oxadiazole] to `Cc1cccc2cc([C@H]3c4nc[nH]c4CCN3c3nnc(C(F)F)o3)nn12` [Example 1740, (R)-2-(difluoromethyl)-5-(4-(7-methylpyrazolo[1,5-a]pyridin-2-yl)-6,7-dihydro-1H-imidazo[4,5-c]pyridin-5(4H)-yl)-1,3,4-oxadiazole], the AC50 rises from < 500 nM to > 5000 nM.

With `Cc1cccc2cc([C@@H]3c4nc[nH]c4CCN3c3nnc(C(F)F)o3)nn12` [Example 1741, (S)-2-(difluoromethyl)-5-(4-(7-methylpyrazolo[1,5-a]pyridin-2-yl)-6,7-dihydro-1H-imidazo[4,5-c]pyridin-5(4H)-yl)-1,3,4-oxadiazole] the AC50 was 500 to 1000 nM.
